Measured values: article PMC3486708 (Journal of medicinal chemistry, 2012)

What was measured:
MC65 cells [1] = assay: Toxicity to MC65 cells in the presence of tetracycline; type: cell-based; conditions: median toxic concentration to MC65 cells, presence of TC
ABCA1 = ABCA1 gene expression in Huh-7 cells; type: cell-based, human; conditions: 24 h, compared to mock-treated cells
MC65 cells [2] = assay: MC65 cell protection assay; type: cell-based; conditions: for protection of MC65 cell death (in words): MC65 cells, absence of TC

| Structure (SMILES) | TD50 (MC65 cells [1]) [µM] | expression of ABCA1 (ABCA1) | protection of MC65 cell death (MC65 cells [2]; up to 50 μM) | protection of MC65 cell death (in words) (MC65 cells [2]) |
| --- | --- | --- | --- | --- |
| Cc1cc2c(c(=O)o1)C=C1CC[C@H](C(C)CNCc3ccc(O)c4ccccc34)C[C@@H]1O2 (stereo partly shown) [Compound 4a] | 13.7 ± 0.704 | significantly increased | – | – |
| CCCCCCCCCCC(C)(C)C(=O)Nc1c(OC)cc(OC)cc1OC [CI-976, reference compound] | – | significantly increased | inactive | – |
| Cc1cc2c(c(=O)o1)C=C1CC[C@H](C(C)CNCc3ccc(O)c(F)c3)C[C@@H]1O2 (stereo partly shown) [Compound 3f] | >50 | – | – | – |
| Cc1cc2c(c(=O)o1)C=C1CC[C@H](C(C)CNCc3ccc(O)cc3)C[C@@H]1O2 (mixture of isomers) [Compound 2b, (5aS,7S)-3-Methyl-7-[(1R) and (1S)1-(4-hydroxybenzylamino)propan-2-yl]-1H,7H-5a,6,8,9-tetrahydro-1-oxopyrano[4,3-b][1]benzopyran] | 49.3 ± 0.127 | significantly increased | – | – |
| Cc1cc2c(c(=O)o1)C=C1CC[C@H](C(C)CNC(=O)c3ccccc3O)C[C@@H]1O2 (stereo partly shown) [Compound 6b] | – | – | – | poor activity |
| Cc1cc2c(c(=O)o1)C=C1CC[C@H](C(C)CNCc3ccc(C#N)cc3)C[C@@H]1O2 (stereo partly shown) [Compound 2i] | – | – | – | abolishes the activity |
| Cc1cc2c(c(=O)o1)C=C1CC[C@H](C(C)CNCc3ccc(CO)cc3)C[C@@H]1O2 (stereo partly shown) [Compound 2e] | >50 | – | – | – |
| CC(=O)Oc1ccccc1C(=O)NCC(C)[C@H]1CCC2=Cc3c(cc(C)oc3=O)O[C@H]2C1 (stereo partly shown) [Compound 6a] | – | – | – | inactive |
| Cc1cc2c(c(=O)o1)C=C1CC[C@H](C(C)Cn3cnc(N)c4ncnc3-4)C[C@@H]1O2 (stereo partly shown) [Compound 1] | 39.0 ± 1.12 | significantly increased | – | – |
